We go through 35 molecules from patent US20240174679A1, “HETEROAROYL AMIDES AS LRRK2 INHIBITORS, PHARMACEUTICAL COMPOSITIONS, AND USES THEREOF” (MERCK SHARP & DOHME LLC, priority 2021, published 2024).

The target of the test is GST tagged truncated human mutant G2019S LRRK2 (Homo sapiens (Human), UniProt Q5S007, G2019S). Put plainly: LRRK2 Km ATP LanthaScreen Assay. Conditions: 134 μM ATP (Km ATP), LRRKtide substrate, negative log of mean IC50 (molar). It counts as biochemical. Summed up: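 Truncated GST-tagged G2019S LRRK2 (1.25 nM enzyme solution) was preincubated with compound for 15 min at rt, then reacted for 90 min with fluorescein-LRRKtide and 134 μM ATP (Km) in Tris pH 8.5/MgCl2 buffer. After an EDTA stop, TR-FRET used a Tb anti-pERM antibody (520/495 nm ratio). IC50 came from a 4-parameter fit and is reported as pIC50, mean of several runs.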
GST tagged truncated human mutant G2019S LRRK2, sequence (Q5S007 970-2527 G2019S): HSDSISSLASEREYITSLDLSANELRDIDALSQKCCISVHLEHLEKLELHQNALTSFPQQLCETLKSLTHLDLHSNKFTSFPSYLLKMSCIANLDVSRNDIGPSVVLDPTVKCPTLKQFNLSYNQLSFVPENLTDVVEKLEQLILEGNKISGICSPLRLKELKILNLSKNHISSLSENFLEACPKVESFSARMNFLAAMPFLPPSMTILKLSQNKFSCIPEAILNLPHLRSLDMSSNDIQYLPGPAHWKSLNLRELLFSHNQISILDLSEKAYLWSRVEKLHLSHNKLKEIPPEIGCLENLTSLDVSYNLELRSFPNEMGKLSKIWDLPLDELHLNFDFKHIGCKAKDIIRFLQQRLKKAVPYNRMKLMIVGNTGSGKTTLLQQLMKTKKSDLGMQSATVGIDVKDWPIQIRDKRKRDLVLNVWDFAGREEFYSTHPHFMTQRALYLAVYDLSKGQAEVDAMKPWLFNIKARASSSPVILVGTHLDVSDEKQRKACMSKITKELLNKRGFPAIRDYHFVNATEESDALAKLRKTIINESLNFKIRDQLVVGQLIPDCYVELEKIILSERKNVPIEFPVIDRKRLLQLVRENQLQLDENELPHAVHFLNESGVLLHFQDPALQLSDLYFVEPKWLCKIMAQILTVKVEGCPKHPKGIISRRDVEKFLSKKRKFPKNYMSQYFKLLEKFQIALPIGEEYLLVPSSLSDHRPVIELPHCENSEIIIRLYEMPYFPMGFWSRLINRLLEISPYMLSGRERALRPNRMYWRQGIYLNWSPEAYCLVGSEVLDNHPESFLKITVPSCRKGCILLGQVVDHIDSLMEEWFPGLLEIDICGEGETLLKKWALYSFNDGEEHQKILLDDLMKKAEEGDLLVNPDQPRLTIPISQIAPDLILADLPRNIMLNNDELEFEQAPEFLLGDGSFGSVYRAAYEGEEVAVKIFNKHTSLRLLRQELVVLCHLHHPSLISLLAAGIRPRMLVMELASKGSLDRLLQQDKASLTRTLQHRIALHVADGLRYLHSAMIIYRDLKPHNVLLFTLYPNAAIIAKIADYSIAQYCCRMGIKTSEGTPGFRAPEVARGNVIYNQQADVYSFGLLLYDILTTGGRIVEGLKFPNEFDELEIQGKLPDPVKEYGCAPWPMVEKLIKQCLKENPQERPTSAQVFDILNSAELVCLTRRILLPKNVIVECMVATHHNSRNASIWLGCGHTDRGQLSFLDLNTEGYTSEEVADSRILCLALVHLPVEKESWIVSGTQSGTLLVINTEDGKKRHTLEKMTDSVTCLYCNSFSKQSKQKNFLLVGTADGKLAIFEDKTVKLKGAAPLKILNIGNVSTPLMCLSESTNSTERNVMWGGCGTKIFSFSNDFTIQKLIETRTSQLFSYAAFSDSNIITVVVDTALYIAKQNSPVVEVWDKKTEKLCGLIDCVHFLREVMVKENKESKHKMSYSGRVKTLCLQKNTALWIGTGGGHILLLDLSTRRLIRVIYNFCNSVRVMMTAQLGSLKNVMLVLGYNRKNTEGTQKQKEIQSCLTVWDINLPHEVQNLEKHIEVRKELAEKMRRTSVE
In general terms: TR-FRET usually uses a lanthanide donor and a delayed reading to cut background.

Regarding `O=C(Nc1cnn(C2CCC2)c1)c1csc(Nc2ccccc2)n1` [Example 4-14, N-(1-cyclobutyl-1H-pyrazol-4-yl)-2-(phenylamino)-1,3-thiazole-4-carboxamide], the “LRRK2 pIC50” value is given as 6.12.

As to `Cn1cc(NC(=O)c2csc(-c3cn[nH]c3)n2)cn1` [Example 4-15, N-(1-methyl-1H-pyrazol-4-yl)-2-(1H-pyrazol-4-yl)thiazole-4-carboxamide], the “LRRK2 pIC50” value is 7.28.

On to `O=C(Nc1cnn(C2CCC2)c1)c1cccc(N2CCCC2)n1` [Example 4-16, N-(1-cyclobutyl-1H-pyrazol-4-yl)-6-(pyrrolidin-1-yl)picolinamide], for which the “LRRK2 pIC50” value amounted to 6.04.

In the case of `O=C(Nc1cnn(C2CCC2)c1)c1cccc(-n2ccnc2)n1` [Example 4-17, N-(1-cyclobutyl-1H-pyrazol-4-yl)-6-(1H-imidazol-1-yl)picolinamide], the “LRRK2 pIC50” value came to 5.91.

Regarding `O=C(Nc1cnn(C2CCC2)c1)c1cccc(N2CCCCC2)n1` [Example 4-18, N-(1-cyclobutyl-1H-pyrazol-4-yl)-6-(piperidin-1-yl)picolinamide], the “LRRK2 pIC50” value is reported as 5.81.

Take `O=C(Nc1cnn(CC2(F)COC2)c1)c1csc(-c2cn[nH]c2)n1` [Example 5-1, N-(1-((3-Fluorooxetan-3-yl)methyl)-1H-pyrazol-4-yl)-2-(1H-pyrazol-4-yl)thiazole-4-carboxamide]: the “LRRK2 pIC50” value stood at 7.50.

Take `Cn1cc(NC(=O)c2csc(-c3cn[nH]c3)n2)c(CO)n1` [Example 6-1, N-(3-(Hydroxymethyl)-1-methyl-1H-pyrazol-4-yl)-2-(1H-pyrazol-4-yl)thiazole-4-carboxamide]: the “LRRK2 pIC50” value came out at 7.47.

On to `O=C(Nc1cnn(CC2CCC2)c1)c1csc(-c2cn[nH]c2)n1` [Example 7-1, N-(1-(Cyclobutylmethyl)-1H-pyrazol-4-yl)-2-(1H-pyrazol-4-yl)thiazole-4-carboxamide], for which the “LRRK2 pIC50” value was determined as 7.76.

As to `O=C(Nc1cn(CC(F)F)nc1C(F)F)c1csc(-c2cn[nH]c2)n1` [Example 7-2, N-[1-(2,2-difluoroethyl)-3-(difluoromethyl)-1H-pyrazol-4-yl]-2-(1H-pyrazol-4-yl)-1,3-thiazole-4-carboxamide], the “LRRK2 pIC50” value is reported as 7.58.

`COCCn1cc(NC(=O)c2csc(-c3cn[nH]c3)n2)c(C(F)F)n1` [Example 7-3, N-[3-(difluoromethyl)-1-(2-methoxyethyl)-1H-pyrazol-4-yl]-2-(1H-pyrazol-4-yl)-1,3-thiazole-4-carboxamide]: the “LRRK2 pIC50” value is listed as 7.27.

As to `O=C(Nc1cnn(CC2CCNCC2)c1)c1csc(-c2cn[nH]c2)n1` [Example 7-4, N-{1-[(piperidin-4-yl)methyl]-1H-pyrazol-4-yl}-2-(1H-pyrazol-4-yl)-1,3-thiazole-4-carboxamide], the “LRRK2 pIC50” value was determined as 6.79.

As to `O=C(Nc1cn(CC2CCCCO2)nc1C(F)F)c1csc(-c2cn[nH]c2)n1` (centres unmarked) [Example 7-5, N-[3-(difluoromethyl)-1-(tetrahydro-2H-pyran-2-ylmethyl)-1H-pyrazol-4-yl]-2-(1H-pyrazol-4-yl)-1,3-thiazole-4-carboxamide], the “LRRK2 pIC50” value is recorded as 7.32.

On to `CN(C)CCCn1cc(NC(=O)c2csc(-c3cn[nH]c3)n2)cn1` [Example 7-6, N-{1-[3-(dimethylamino)propyl]-1H-pyrazol-4-yl}-2-(1H-pyrazol-4-yl)-1,3-thiazole-4-carboxamide], for which the “LRRK2 pIC50” value is listed as 6.43.

For `O=C(Nc1cn(CC2CCOCC2)nc1C(F)F)c1csc(-c2cn[nH]c2)n1` [Example 7-7, N-[3-(difluoromethyl)-1-(tetrahydro-2H-pyran-4-ylmethyl)-1H-pyrazol-4-yl]-2-(1H-pyrazol-4-yl)-1,3-thiazole-4-carboxamide], the “LRRK2 pIC50” value was 7.72.

For the molecule `O=C(Nc1cnn(CC2CCC(F)(F)CC2)c1)c1csc(-c2cn[nH]c2)n1` [Example 7-8, N-{1-[(4,4-difluorocyclohexyl)methyl]-1H-pyrazol-4-yl}-2-(1H-pyrazol-4-yl)-1,3-thiazole-4-carboxamide], the “LRRK2 pIC50” value stood at 7.35.

Turning to `O=C(Nc1cn(CCF)nc1C(F)F)c1csc(-c2cn[nH]c2)n1` [Example 7-9, N-[3-(difluoromethyl)-1-(2-fluoroethyl)-1H-pyrazol-4-yl]-2-(1H-pyrazol-4-yl)-1,3-thiazole-4-carboxamide], the “LRRK2 pIC50” value is 7.75.

As for `O=C(Nc1cnn(C2CCOCC2)c1)c1csc(-c2cn[nH]c2)n1` [Example 7-10, 2-(1H-pyrazol-4-yl)-N-[1-(tetrahydro-2H-pyran-4-yl)-1H-pyrazol-4-yl]-1,3-thiazole-4-carboxamide], the “LRRK2 pIC50” value turned out to be 7.37.

Turning to `O=C(Nc1cn(CC2CCC2)nc1C(F)F)c1csc(-c2cn[nH]c2)n1` [Example 7-11, N-[1-(cyclobutylmethyl)-3-(difluoromethyl)-1H-pyrazol-4-yl]-2-(1H-pyrazol-4-yl)-1,3-thiazole-4-carboxamide], the “LRRK2 pIC50” value worked out at 7.55.

Regarding `O=C(Nc1cn(CC2CCCO2)nc1C(F)F)c1csc(-c2cn[nH]c2)n1` (centres unmarked) [Example 7-12, N-[3-(difluoromethyl)-1-(tetrahydrofuran-2-ylmethyl)-1H-pyrazol-4-yl]-2-(1H-pyrazol-4-yl)-1,3-thiazole-4-carboxamide], the “LRRK2 pIC50” value was found to be 7.68.

Turning to `O=C(Nc1cnn(CC2CCCO2)c1)c1csc(-c2cn[nH]c2)n1` (centres unmarked) [Example 7-13, 2-(1H-pyrazol-4-yl)-N-[1-(tetrahydrofuran-2-ylmethyl)-1H-pyrazol-4-yl]-1,3-thiazole-4-carboxamide], the “LRRK2 pIC50” value was found to be 6.84.

Take `COc1nn(CC2CC2)cc1NC(=O)c1csc(-c2cn[nH]c2)n1` [Example 7-14, N-[1-(cyclopropylmethyl)-3-methoxy-1H-pyrazol-4-yl]-2-(1H-pyrazol-4-yl)-1,3-thiazole-4-carboxamide]: the “LRRK2 pIC50” value worked out at 7.92.

As to `O=C(Nc1cnn(CCN2CCNCC2)c1)c1csc(-c2cn[nH]c2)n1` [Example 7-15, N-{1-[2-(piperazin-1-yl)ethyl]-1H-pyrazol-4-yl}-2-(1H-pyrazol-4-yl)-1,3-thiazole-4-carboxamide], the “LRRK2 pIC50” value is 6.36.

`COc1nn(CC2CCOCC2)cc1NC(=O)c1csc(-c2cn[nH]c2)n1` [Example 7-16, N-[3-methoxy-1-(tetrahydro-2H-pyran-4-ylmethyl)-1H-pyrazol-4-yl]-2-(1H-pyrazol-4-yl)-1,3-thiazole-4-carboxamide]: the “LRRK2 pIC50” value came out at 7.25.

For `O=C(Nc1cnn(Cc2ccc(F)cc2)c1)c1csc(-c2cn[nH]c2)n1` [Example 7-17, N-[1-(4-fluorobenzyl)-1H-pyrazol-4-yl]-2-(1H-pyrazol-4-yl)-1,3-thiazole-4-carboxamide], the “LRRK2 pIC50” value was determined as 7.76.

`CC(C)n1cc(NC(=O)c2csc(-c3cn[nH]c3)n2)c(C(F)F)n1` [Example 7-18, N-[3-(difluoromethyl)-1-(1-methylethyl)-1H-pyrazol-4-yl]-2-(1H-pyrazol-4-yl)-1,3-thiazole-4-carboxamide]: the “LRRK2 pIC50” value is listed as 7.72.

For `COc1nn(CC2CCC2)cc1NC(=O)c1csc(-c2cn[nH]c2)n1` [Example 7-19, N-[1-(cyclobutylmethyl)-3-methoxy-1H-pyrazol-4-yl]-2-(1H-pyrazol-4-yl)-1,3-thiazole-4-carboxamide], the “LRRK2 pIC50” value came to 7.80.

In the case of `COc1nn(CC(F)F)cc1NC(=O)c1csc(-c2cn[nH]c2)n1` [Example 7-20, N-[1-(2,2-difluoroethyl)-3-methoxy-1H-pyrazol-4-yl]-2-(1H-pyrazol-4-yl)-1,3-thiazole-4-carboxamide], the “LRRK2 pIC50” value was found to be 7.58.

In the case of `COCCn1cc(NC(=O)c2csc(-c3cn[nH]c3)n2)c(OC)n1` [Example 7-21, N-[3-methoxy-1-(2-methoxyethyl)-1H-pyrazol-4-yl]-2-(1H-pyrazol-4-yl)-1,3-thiazole-4-carboxamide], the “LRRK2 pIC50” value turned out to be 6.57.

For the molecule `COCCn1cc(NC(=O)c2csc(-c3cn[nH]c3)n2)cn1` [Example 7-22, N-[1-(2-methoxyethyl)-1H-pyrazol-4-yl]-2-(1H-pyrazol-4-yl)-1,3-thiazole-4-carboxamide], the “LRRK2 pIC50” value turned out to be 7.00.

For `CC(C)Cn1cc(NC(=O)c2csc(-c3cn[nH]c3)n2)c(C(F)F)n1` [Example 7-23, N-[3-(difluoromethyl)-1-(2-methylpropyl)-1H-pyrazol-4-yl]-2-(1H-pyrazol-4-yl)-1,3-thiazole-4-carboxamide], the “LRRK2 pIC50” value is 7.59.

As for `O=C(Nc1cnn(Cc2ccncc2)c1)c1csc(-c2cn[nH]c2)n1` [Example 7-24, 2-(1H-pyrazol-4-yl)-N-[1-(pyridin-4-ylmethyl)-1H-pyrazol-4-yl]-1,3-thiazole-4-carboxamide], the “LRRK2 pIC50” value is 7.30.

For the molecule `COc1nn(CC2(C#N)CC2)cc1NC(=O)c1csc(-c2cn[nH]c2)n1` [Example 7-25, N-{1-[(1-cyanocyclopropyl)methyl]-3-methoxy-1H-pyrazol-4-yl}-2-(1H-pyrazol-4-yl)-1,3-thiazole-4-carboxamide], the “LRRK2 pIC50” value came to 7.70.

Take `O=C(Nc1cnn(C[C@H]2CCNC2)c1)c1csc(-c2cn[nH]c2)n1` [Example 7-26, 2-(1H-pyrazol-4-yl)-N-(1-{[(3S)-pyrrolidin-3-yl]methyl}-1H-pyrazol-4-yl)-1,3-thiazole-4-carboxamide]: the “LRRK2 pIC50” value was found to be 6.84.

In the case of `N#CCn1cc(NC(=O)c2csc(-c3cn[nH]c3)n2)c(C(F)F)n1` [Example 7-27, N-[1-(cyanomethyl)-3-(difluoromethyl)-1H-pyrazol-4-yl]-2-(1H-pyrazol-4-yl)-1,3-thiazole-4-carboxamide], the “LRRK2 pIC50” value is given as 7.50.

`N#CC1(Cn2cc(NC(=O)c3csc(-c4cn[nH]c4)n3)cn2)CCNCC1` [Example 7-28, N-{1-[(4-cyanopiperidin-4-yl)methyl]-1H-pyrazol-4-yl}-2-(1H-pyrazol-4-yl)-1,3-thiazole-4-carboxamide]: the “LRRK2 pIC50” value is reported as 6.71.
